# Target: T1, Jack bean α-D-mannosidase (Canavalia ensiformis, UniProt C0HJB3)
# T1 construct: purchased Sigma M7257
# T1 sequence (C0HJB3 1-981): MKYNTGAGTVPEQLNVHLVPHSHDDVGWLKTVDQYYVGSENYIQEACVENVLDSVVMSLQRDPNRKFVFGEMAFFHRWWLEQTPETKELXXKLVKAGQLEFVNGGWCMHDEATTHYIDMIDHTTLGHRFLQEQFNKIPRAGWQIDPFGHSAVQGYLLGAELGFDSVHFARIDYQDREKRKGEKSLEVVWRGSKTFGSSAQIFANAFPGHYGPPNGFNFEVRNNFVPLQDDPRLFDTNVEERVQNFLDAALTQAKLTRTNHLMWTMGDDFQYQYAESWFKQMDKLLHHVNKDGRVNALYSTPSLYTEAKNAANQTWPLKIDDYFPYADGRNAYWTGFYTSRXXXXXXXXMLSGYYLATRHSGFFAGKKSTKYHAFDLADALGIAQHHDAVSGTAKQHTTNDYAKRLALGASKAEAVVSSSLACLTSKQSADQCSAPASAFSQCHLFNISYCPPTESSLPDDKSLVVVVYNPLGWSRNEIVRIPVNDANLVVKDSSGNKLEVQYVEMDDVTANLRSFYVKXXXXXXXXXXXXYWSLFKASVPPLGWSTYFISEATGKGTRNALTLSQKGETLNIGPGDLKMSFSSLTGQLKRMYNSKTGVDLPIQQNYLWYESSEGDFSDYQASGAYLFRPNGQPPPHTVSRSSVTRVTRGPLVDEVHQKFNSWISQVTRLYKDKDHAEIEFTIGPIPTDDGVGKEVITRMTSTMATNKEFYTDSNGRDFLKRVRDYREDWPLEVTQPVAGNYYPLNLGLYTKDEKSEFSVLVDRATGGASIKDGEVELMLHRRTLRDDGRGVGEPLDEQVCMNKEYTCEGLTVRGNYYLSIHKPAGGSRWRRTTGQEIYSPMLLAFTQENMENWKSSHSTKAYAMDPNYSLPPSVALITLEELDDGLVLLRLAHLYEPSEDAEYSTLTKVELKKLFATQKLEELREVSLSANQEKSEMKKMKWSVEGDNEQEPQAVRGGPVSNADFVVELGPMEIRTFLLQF
# Test: Jack bean α-D-mannosidase activity assay (PNP-α-D-mannopyranoside substrate)
# Type: biochemical
# Experimental: Fresh solutions had been prepared a day or so earlier of 0.2M Mcllvane buffer at pH 4.5 and 5 mM PNP-α-D-mannopyranoside (Sigma, N2127) in pH 4.5 buffer. Also prepared was a dilution of Jack bean α-D-mannosidase enzyme (Sigma, M7257, 22 Units/mg, 6.2 mg/ml.) at 0.6 Units/ml in pH 4.5 buffer.
# The incubation mixture consisted of 10 μl enzyme solution, 10 μl of 1 mg/ml aqueous inhibitor solution and 50 μl of 5 mM substrate made up in buffer at the optimum pH for the enzyme. The reactions were stopped by addition of 70 μl 0.4M glycine (pH 10.4) during the exponential phase of the reaction, which had been determined at the beginning using uninhibited assays in which water replaced inhibitor. Final absorbances were read at 405 nm using a Versamax microplate reader (Molecular Devices). Assays were carried out in triplicate, and the values given are means of the three replicates per assay. Results were expressed as a percentage of uninhibited assays in which water replaced inhibitor.
compound,measurement,setting,value
O[C@H]1[C@H]2[C@H](O)CCCN2C[C@H]1O [swainsonine],inhibition of the promoted activity,activity promoted by imino sugars with a mannose configuration,total inhibition
same,promotion of the mannosidase,any concentration tested,does not cause promotion
same,inhibition,"swainsonine alone, or mixed with an equal concentration of the selected stimulating compound",100%

# Reference: US20100317690A1, “TREATMENT OF PROTEIN FOLDING DISORDERS” (SUMMIT CORPORATION PLC, priority 2007, published 2010)
